Data published in patent US9150555B2, “Amide derivative and use thereof” (Mitsubishi Tanabe Pharma Corporation, priority 2010, dated 2015).

Legend:
[1] = molecular target: hERG (Homo sapiens, UniProt Q12809); test: Effects on hERG current (whole-cell clamping); details: human, HEK 293 cells that express hERG, pH 7.4, hERG inhibition rate (%) (1 μM), 1 μM; tail peak current; hERG-expressed HEK 293 cells
Experimental: Dimethylsulfoxide was used as a vehicle and hERG-expressed HEK 293 cells (Cytomyx) were used as test cells. Test cells were once cultured and subdivided and were stored under frozen condition in liquid nitrogen. In the study, thawed and subcultured cells having less than 30 of the passage number were used. Test cells were cultured in a carbon dioxide incubator BNP-110M (Tabai Espec Corp.) at 37±1° C., and 5.0±0.5% of carbon dioxide concentration. The component of culture medium was MEM (Minimum Essential Medium) supplemented with 10 vol % fetal bovine serum (non-activated), 1 mmol/L sodium pyruvate, 0.1 mmol/L non-essential amino acid, 100 U/mL penicillin with 100 μg/mL streptomycin. To select gene-expressing cells, 400 μg/mL G418 Sulphate (Invitrogen) was added to the culture medium. In the dishes for the measurement, the medium which not contain G418 Sulphate (Invitrogen) was used.
As to seeding of cells for measurement, subcultured cells which became confluent were treated with 0.25% trypsin-solution containing 1 mmol/L EDTA (Invitrogen) to remove from the plate, and seeded on sterilized collagen-coated cover glass (Iwaki, AGC Techno Glass Co., LTD). The medium was exchanged appropriately, including the day of measurement.
A perfusion method was applied to the experiment. Test cells were perfused (perfusion speed: approximately 4 mL/min) with an external solution containing specified concentrations of test compounds (component of external solution: 137 mmol/L of sodium chloride, 4 mmol/L of potassium chloride, 10 mmol/L of HEPES, 1.8 mmol/L of calcium chloride, 1 mmol/L of magnesium chloride and 10 mmol/L of glucose; adjusted to pH 7.4±0.1 with sodium hydroxide aqueous solution). […] When effects were observed, the perfusion was continued until the maximum response was observed. […] The data were obtained from one experiment or more and the cells which were incubated in a carbon dioxide incubator after seeding and attached to cover slips were used for the measurement.
A whole-cell clamping method was applied to the measurement. Test cells were perfused (perfusion speed: approximately 4 mL/min) with an external solution (component of external solution: 137 mmol/L of sodium chloride, 4 mmol/L of potassium chloride, 10 mmol/L of HEPES, 1.8 mmol/L of calcium chloride, 1 mmol/L of magnesium chloride and 10 mmol/L of glucose; adjusted to pH 7.4±0.1 with sodium hydroxide aqueous solution). A glass electrode with a resistance of 2 to 6 MΩ, filled with an internal solution (component: 130 mmol/L of potassium chloride, 1 mmol/L of magnesium chloride, 5 mmol/L of EGTA, 10 mmol/L of HEPES and 5 mmol/L of ATP adjusted to pH 7.2±0.1 with sodium hydroxide aqueous solution) was used. After rupturing cell membrane with glass electrode, the cell membrane voltage was held at −80 mV via a patch clamp software (pCLAMP9 [Axon CNS], Molecular Devices) using patch clamp amplifier (EPC8, HEKA). […] Test cells and the cell-attached cover glass were changed every treatment. Temperature of the fluid in a perfusion fluid tank was 24±2° C.
The obtained current was recorded on a computer via a patch clamp amplifier using patch clamp software. An evaluation item was a tail peak current.
A tail peak current was analyzed using analyzing software (Clampfit 9 [Axon CNS], MolecularDevices). Each 2 pulses of before and after perfusion of test compound for each concentration was analyzed, and a peak values of the tail current on the pulses were determined. The inhibition ratio was determined according to the following equation:

[2] = test system: IL-17 production of mouse spleen cells stimulated by rm-IL-23; test: Production of IL-17 induced when mouse spleen cells were stimulated by recombinant mouse interleukin-23 (rm-IL-23); type: cell-based; details: Mus musculus, 72 h, inhibition of IL-17 production, DBA/1J mouse spleen cells, rm-IL-23 1 nmol/L, ELISA
Procedure, shortened: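 Spleen cells from 6-7 week-old male DBA/1J mice, 2×10^5 cells/well in 10% FCS RPMI1640, cultured 72 h at 37° C with compound (1 to 1,000 nmol/L) plus 1 nmol/L rm-IL-23. IL-17 in supernatant by ELISA; viability by WST-8 absorbance at 450 nm; IC50 by linear regression of inhibition rate.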

[3] = test system: Type II collagen-induced arthritis in DBA/1J mice; test: Type II collagen-induced arthritis in DBA/1J mice; type: in vivo, mouse; details: Mus musculus, 504 h; dose showing significant inhibitory effect on arthritis; oral, once a day for three weeks from booster immunization
Experimental: Effect on Type II Collagen-Induced Arthritis in DBA/1J Mice
An emulsion was prepared by mixing bovine II collagen (100-200 μg purchased from collagen Gijyutsu Kenshuukai) and Freund's complete adjuvant (Sigma Aldrich) containing killed Mycobacterium tuberculosis H37Ra. Arthritis was induced by immunization through subcutaneous administration of the emulsion to the tail of 6-7 week-old male DBA/1J mouse (Charles River Japan, Inc.), followed by booster immunization three weeks later by administration of an emulsion prepared by mixing bovine II collagen with Freund's incomplete adjuvant (Sigma-Aldrich). Test compound was suspended or dissolved in 0.5% carboxymethylcellulose (Sigma-Aldrich) and repeatedly administered orally once a day at a dose of 0.1 to 10 mg/kg body weight using an oralsonde for three weeks from the day of booster immunization. In this model, the symptom of arthritis of the limbs was each evaluated according to the following evaluation criteria of 0 to 4 scores: 0, No change; 1, edema in only one joint; 2, edema in two or more joints, or light edema of the entire limb; 3, severe edema of the entire limb; 4, severe edema of the entire limb and ankylosis and immovability of joint. The score of arthritis of each mouse was expressed as the total of the scores of the limbs (Maximum: 16 points). On the next day of the last administration, soft X-ray photograph of the limbs was taken with soft X-ray equipment (Omic), and the level of joint destruction was evaluated by observation under a microscope. In each finger of the limbs the score of joint destruction was judged as 0 when no joint destruction was found, and as 1 when one or more destruction was found, and the score of joint destruction of a mouse was expressed as the total of scores for each finger of limb (Maximum: 20). The arthritis score and joint destruction score were expressed as the average value and standard error for each group (n=6-8). Only a vehicle was administered in a control group, and statistical analysis was performed by Dunnett's multiple comparison test, in which the case was judged as significant when the p value was less than 0.05.

Sequence of hERG (Q12809 whole entry): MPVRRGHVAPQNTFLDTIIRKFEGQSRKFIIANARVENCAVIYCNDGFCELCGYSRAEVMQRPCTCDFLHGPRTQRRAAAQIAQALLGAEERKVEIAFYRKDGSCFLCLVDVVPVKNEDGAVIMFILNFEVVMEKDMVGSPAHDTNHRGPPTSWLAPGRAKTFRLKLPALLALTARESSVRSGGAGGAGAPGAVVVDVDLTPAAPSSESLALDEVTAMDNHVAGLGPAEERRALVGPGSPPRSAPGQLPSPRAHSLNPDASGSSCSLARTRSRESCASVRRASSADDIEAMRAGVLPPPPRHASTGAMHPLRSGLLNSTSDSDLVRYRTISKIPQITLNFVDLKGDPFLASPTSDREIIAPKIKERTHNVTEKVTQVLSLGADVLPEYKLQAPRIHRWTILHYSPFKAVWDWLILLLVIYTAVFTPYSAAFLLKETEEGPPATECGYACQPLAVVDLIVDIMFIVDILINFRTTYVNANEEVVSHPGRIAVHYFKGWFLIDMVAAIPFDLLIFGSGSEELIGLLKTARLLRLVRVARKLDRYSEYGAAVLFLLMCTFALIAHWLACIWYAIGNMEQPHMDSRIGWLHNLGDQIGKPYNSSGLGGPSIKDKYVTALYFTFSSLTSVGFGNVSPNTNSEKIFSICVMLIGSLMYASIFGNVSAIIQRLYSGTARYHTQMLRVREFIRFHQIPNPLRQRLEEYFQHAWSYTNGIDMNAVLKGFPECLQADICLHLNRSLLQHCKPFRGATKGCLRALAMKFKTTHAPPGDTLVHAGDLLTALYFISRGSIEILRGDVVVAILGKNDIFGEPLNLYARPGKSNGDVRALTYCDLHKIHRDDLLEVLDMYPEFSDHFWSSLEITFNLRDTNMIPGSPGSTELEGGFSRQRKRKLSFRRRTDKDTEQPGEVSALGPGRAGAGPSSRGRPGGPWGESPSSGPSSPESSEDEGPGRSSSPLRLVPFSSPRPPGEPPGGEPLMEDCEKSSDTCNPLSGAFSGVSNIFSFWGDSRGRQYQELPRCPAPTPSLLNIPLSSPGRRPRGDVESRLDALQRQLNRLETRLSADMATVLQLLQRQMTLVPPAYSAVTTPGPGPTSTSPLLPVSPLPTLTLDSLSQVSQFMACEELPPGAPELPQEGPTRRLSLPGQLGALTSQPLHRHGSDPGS

SMILES	inhibition at 1 µM [1] [%]	IC50 [2] [nM]	minimal effective dose [3] [mg/kg]
CS(=O)(=O)O.Cc1cc(NC(=O)c2cnn(-c3ccc(C(F)(F)F)cn3)c2C)cnc1C1=CCC(N2CCOCC2)CC1 (centres unmarked) [Example D20, 5-Methyl-N-{5-methyl-6-[4-(morpholin-4-yl)cyclohex-1-en-1-yl]pyridin-3-yl}-1-[5-(trifluoromethyl)pyridin-2-yl]-1H-pyrazole-4-carboxamide mesylate]	32.2	56.4	1
Cc1c(C(=O)Nc2ccc([C@]3(C#N)CC[C@@H](N4CCOCC4)CC3)nc2)cnn1-c1ccc(C(F)(F)F)cc1 [Example D146]	47.2	46.6	0.1
Cc1c(C(=O)Nc2ccc(C3CCC(=O)CC3)nc2)cnn1-c1ccc(Cl)cc1 [Example E13]	10.3	109	1
Cc1cc(NC(=O)c2cnn(-c3ccc(C(F)(F)F)cc3)c2C)cnc1C1=CCC(N2CCOCC2)CC1 (centres unmarked) [Example E24]			1
Cc1c(C(=O)Nc2ccc([C@]3(C#N)CC[C@@H](O)CC3)nc2)cnn1-c1ccc(Cl)cc1 [Example G1, 1-(4-Chlorophenyl)-N-[6-(r-1-cyano-c-4-hydroxycyclohexyl)pyridin-3-yl]-5-methyl-1H-pyrazole-4-carboxamide]	25.8	118	3
Cc1c(C(=O)Nc2ccc([C@]3(C#N)CC[C@@H](O)CC3)nc2)cnn1-c1ccc(F)cc1 [Example G2, N-[6-(r-1-cyano-c-4-hydroxycyclohexyl)pyridin-3-yl]-1-(4-fluorophenyl)-5-methyl-1H-pyrazole-4-carboxamide]	15.2	194	1
Cc1ccc(-n2ncc(C(=O)Nc3ccc([C@]4(C#N)CC[C@@H](O)CC4)nc3)c2C)cc1 [Example G3, N-[6-(r-1-Cyano-c-4-hydroxycyclohexyl)pyridin-3-yl]-5-methyl-1-(4-methylphenyl)-1H-pyrazole-4-carboxamide]	4.4	91.8	1
Cc1c(C(=O)Nc2ccc([C@]3(C#N)CC[C@H](O)CC3)nc2)cnn1-c1ccc(C(F)(F)F)cc1 [Example K2]			10
Cc1cc(NC(=O)c2cnn(-c3ccc(C(F)(F)F)cn3)c2C)cnc1C1=CCC(N(C)C(=O)C(C)(C)C)CC1 (centres unmarked) [Example K28, N-(6-{4-[N-(2,2-Dimethylpropion-1-yl)-N-methylamino]cyclohex-1-en-1-yl}-5-methylpyridin-3-yl)-5-methyl-1-[5-(trifluoromethyl)pyridin-2-yl]-1H-pyrazole-4-carboxamide]	5.1	8.11	
Cc1cc(NC(=O)c2cnn(-c3ccc(C(F)(F)F)cn3)c2C)cnc1C1=CCC(N(C)CCC(C)(C)C)CC1 (centres unmarked) [Example K30, N-(6-[4-[N-(3,3-Dimethylbutyl)-N-methylamino]cyclohex-1-en-1-yl]-5-methylpyridin-3-yl)-5-methyl-1-[5-(trifluoromethyl)pyridin-2-yl]-1H-pyrazole-4-carboxamide]	79.6	368	
Cc1cc(NC(=O)c2cnn(-c3ccc(C(F)(F)F)cn3)c2C)cnc1C1=CCC(C(C)(C)O)CC1 (centres unmarked) [Example K31, N-{6-[4-(1-Hydroxy-1-methylethyl)cyclohex-1-en-1-yl]-5-methylpyridin-3-yl}-5-methyl-1-[5-(trifluoromethyl)pyridin-2-yl]-1H-pyrazole-4-carboxamide]	15.8	4.27	
Cc1c(C(=O)Nc2ccc(C3=CCC(C(C)(C)O)CC3)nc2)cnn1-c1ccc(C(F)(F)F)cn1 (centres unmarked) [Example K32, N-{6-[4-(1-Hydroxyl-methylethyl)cyclohex-1-en-1-yl]pyridin-3-yl}-5-methyl-1-[5-(trifluoromethyl)pyridin-2-yl]-1H-pyrazole-4-carboxamide]	11.3	6.32	
CC[C@]1(O)CC[C@](C#N)(c2ccc(NC(=O)c3cnn(-c4ccc(F)cc4)c3C)cn2)CC1 [Example K33, N-[6-(r-1-Cyano-4-ethyl-c-4-hydroxycyclohexan-1-yl)pyridin-3-yl]-1-(4-fluorophenyl)-5-methyl-1H-pyrazole-4-carboxamide]	8	206	
CC[C@]1(O)CC[C@@](C#N)(c2ccc(NC(=O)c3cnn(-c4ccc(C)cc4)c3C)cn2)CC1 [Example K34, N-[6-(r-1-Cyano-4-ethyl-t-4-hydroxycyclohexan-1-yl)pyridin-3-yl]-5-methyl-1-(4-methylphenyl)-1H-pyrazole-4-carboxamide]	0.5	154	
CC[C@]1(O)CC[C@](C#N)(c2ccc(NC(=O)c3cnn(-c4ccc(C)cc4)c3C)cn2)CC1 [Example K36, N-[6-(r-1-Cyano-4-ethyl-c-4-hydroxycyclohexan-1-yl)pyridin-3-yl]-5-methyl-1-(4-methylphenyl)-1H-pyrazole-4-carboxamide]	8.1	124	
Cc1c(C(=O)Nc2cnc(C3=CCC(N4CCOCC4)CC3)c(C#N)c2)cnn1-c1ccc(C(F)(F)F)cn1 (centres unmarked) [Example K38, N-{5-Cyano-6-[4-(morpholin-4-yl)cyclohex-1-en-1-yl]pyridin-3-yl}-5-methyl-1-[5-(trifluoromethyl)pyridin-2-yl]-1H-pyrazole-4-carboxamide]	44.1	58.1	
Cc1cc(NC(=O)c2cnn(-c3ccc(C(F)(F)F)cn3)c2C)cnc1C1=CCN(C(=O)C(C)(C)C)CC1 [Example K41, N-{6-[1-(2,2-Dimethylpropanoyl)-1,2,3,6-tetrahydropyridin-4-yl]-5-methylpyridin-3-yl}-5-methyl-1-[5-(trifluoromethyl)pyridin-2-yl]-1H-pyrazole-4-carboxamide]	25.6	161	
Cc1cc(NC(=O)c2cnn(-c3ccc(C(F)(F)F)cn3)c2C)cnc1C1=CCN(S(=O)(=O)C(C)C)CC1 [Example K45, 5-Methyl-N-{5-methyl-6-[1-(propane-2-sulfonyl)-1,2,3,6-tetrahydropyridin-4-yl]pyridin-3-yl}-1-[5-(trifluoromethyl)pyridin-2-yl]-1H-pyrazole-4-carboxamide]	21.1	46.2	
Cc1c(C(=O)Nc2ccc(C3(C#N)CCN(S(=O)(=O)C(C)C)CC3)nc2)cnn1-c1ccc(C(F)(F)F)cn1 [Example K51, N-{6-[4-Cyano-1-(propane-2-sulfonyl)piperidin-4-yl]pyridin-3-yl}-5-methyl-1-[5-(trifluoromethyl)pyridin-2-yl]-1H-pyrazole-4-carboxamide]	43.7	37.3	
Cc1cc(NC(=O)c2cnn(-c3ccc(C(F)(F)F)cn3)c2C)cnc1C1=CCN(C(=O)N2CCCC2)CC1 [Example K52, 5-Methyl-N-{5-methyl-1-(pyrrolidin-1-ylcarbonyl)-6-[1,2,3,6-tetrahydropyridin-4-yl]pyridin-3-yl}-1-[5-(trifluoromethyl)pyridin-2-yl]-1H-pyrazole-4-carboxamide]	31.5	160	
Cc1cc(NC(=O)c2cnn(-c3ccc(C(F)(F)F)cn3)c2C)cnc1C1CCN(S(=O)(=O)C(C)C)CC1 [Example K55, 5-Methyl-N-{5-methyl-6-[1-(propane-2-sulfonyl)piperidin-4-yl]pyridin-3-yl}-1-[5-(trifluoromethyl)pyridin-2-yl]-1H-pyrazole-4-carboxamide]	29.5	46.4	
Cc1cc(NC(=O)c2cnn(-c3ccc(C(F)(F)F)cn3)c2C)cnc1C1CCN(C(=O)C(F)(F)F)CC1 [Example K60, 5-Methyl-N-{5-methyl-6-[1-(trifluoroacetyl)piperidin-4-yl]pyridin-3-yl}-1-[5-(trifluoromethyl)pyridin-2-yl]-1H-pyrazole-4-carboxamide]	22.8	47.2	
Cc1c(C(=O)Nc2cnc(C3=CCC(N(C)C(=O)C(C)(C)C)CC3)cn2)cnn1-c1ccc(C(F)(F)F)cn1 (centres unmarked) [Example K64, N-(5-{4-[N-(2,2-Dimethylpropion-1-yl)-N-methylamino]cyclohex-1-en-1-yl}pyrazin-2-yl)-5-methyl-1-[5-(trifluoromethyl)pyridin-2-yl]-1H-pyrazole-4-carboxamide]	2.3	157	
